Patent US10738080B2, “Inhibitors of beta integrin-G protein alpha subunit binding interactions” (priority 2010, dated 2020)
No end group written: not given here. *: point of attachment. Myristoyl = CCCCCCCCCCCCCC(=O)*

Target: T1, Gα13 binding to β3 (Homo sapiens, UniProt P05106+Q14344)
T1 construct: Proteins from platelet lysates were immunoprecipitated with control IgG or antibody to Gα13; The integrin αIIbβ3 was co-immunoprecipitated by anti-Gα13 antibody, but not control IgG, from platelet lysates; endogenous in cells; host or cells: washed human platelets (lysates)
T1 sequence (Q14344 1-377): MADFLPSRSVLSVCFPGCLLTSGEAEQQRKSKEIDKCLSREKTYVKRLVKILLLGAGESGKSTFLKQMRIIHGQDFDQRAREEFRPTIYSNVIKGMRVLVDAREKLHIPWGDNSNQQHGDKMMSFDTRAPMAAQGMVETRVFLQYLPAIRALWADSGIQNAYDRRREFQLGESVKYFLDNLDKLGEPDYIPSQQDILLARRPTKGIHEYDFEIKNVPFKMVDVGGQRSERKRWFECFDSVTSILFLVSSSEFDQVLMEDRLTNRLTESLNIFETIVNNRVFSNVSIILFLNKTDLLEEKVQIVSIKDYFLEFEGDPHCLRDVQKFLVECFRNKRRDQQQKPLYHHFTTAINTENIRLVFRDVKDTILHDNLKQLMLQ
T1 sequence (P05106 27-788): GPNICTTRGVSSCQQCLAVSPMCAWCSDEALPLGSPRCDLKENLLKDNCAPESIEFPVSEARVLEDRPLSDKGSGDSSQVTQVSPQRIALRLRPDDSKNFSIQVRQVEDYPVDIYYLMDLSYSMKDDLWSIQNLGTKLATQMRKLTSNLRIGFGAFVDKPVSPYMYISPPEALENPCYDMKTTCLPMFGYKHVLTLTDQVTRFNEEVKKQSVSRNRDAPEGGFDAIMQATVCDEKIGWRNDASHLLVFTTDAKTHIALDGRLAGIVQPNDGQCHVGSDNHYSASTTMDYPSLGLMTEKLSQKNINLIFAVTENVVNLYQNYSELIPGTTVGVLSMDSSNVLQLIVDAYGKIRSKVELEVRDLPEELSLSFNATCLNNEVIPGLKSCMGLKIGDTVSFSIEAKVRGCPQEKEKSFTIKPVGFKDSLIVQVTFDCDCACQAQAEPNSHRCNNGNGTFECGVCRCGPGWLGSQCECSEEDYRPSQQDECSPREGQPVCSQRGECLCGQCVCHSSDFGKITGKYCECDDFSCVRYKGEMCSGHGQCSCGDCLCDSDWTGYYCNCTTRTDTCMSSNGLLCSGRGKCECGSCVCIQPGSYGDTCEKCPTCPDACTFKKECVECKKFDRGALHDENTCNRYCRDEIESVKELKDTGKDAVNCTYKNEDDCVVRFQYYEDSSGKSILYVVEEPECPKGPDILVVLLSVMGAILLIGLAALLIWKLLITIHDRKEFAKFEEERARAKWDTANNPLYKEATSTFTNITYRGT
Assay: Co-immunoprecipitation of β3 with Gα13 from platelet lysates
Conditions: for co-immunoprecipitation between Gα13 and β3: platelets/platelet lysates, 500 μM peptide
Experimental: As previously described (S7), cell lysates were incubated with 2 μg/ml of D57 (antibody to integrin αIIbβ3), LJP3 (antibody against GPIb), or mouse IgG, and further incubated with protein G-conjugated Sepharose beads. Cell lysates were also incubated with rabbit anti-Gα13 IgG antibody (1.5 μg/ml) or an equal amount of rabbit IgG and further incubated with protein A-conjugated Sepharose beads. After 3-6 washes with lysis buffer, immunoprecipitates were analyzed by SDS-polyacrylamide gel electrophoresis and Western blots with antibodies against β3 (MAb15), GPIb (anti-IbαC (S8)) or Gα13. In some experiments, 1 μM GDP, 1 μM GTPγS or 30 μM AlF4^− were added to the reaction to assess the effect of Gα13 activation on integrin binding. In other experiments, 250 μM mSRI or scrambled control peptide was incubated with platelet lysates prior to immunoprecipitation. GST bead pull down analysis was previously described (S7). Purified Gα13 was incubated with glutathione beads-bound to GST, GST-β1CD or GST-β3 CD at 4° C. overnight. Bead-bound proteins were analyzed by immunoblotting. For GST-β3CD cDNA construction, integrin-β3 cytoplasmic domain (716-762) cDNA was generated by PCR and cloned into pGEX-4T2 vector using Bam HI and Xho I restriction sites. The forward primer is 5′-[…]-3′ (SEQ ID NO: 48); the reverse primer is 5′-[…]-3′ (SEQ ID NO: 49). For GST-I31CD cDNA construction, β1 cytoplasmic domain (752-798) cDNA was amplified by PCR and cloned into pGEX-4T1 vector using EcoRI and Xho I restriction sites. The primer sequences are: (1) forward: 5′-[…]-3′ (SEQ ID NO: 50); (2) reverse: […]-3′ (SEQ ID NO: 51). GST, GST-β1CD and GST-β3CD were purified from BL21 (DE3) E. coli using glutathione-conjugated beads.
Cell lysates were incubated with rabbit anti-Gα13 IgG (1.5 μg/ml), anti-integrin β3 rabbit serum (5 μl/ml) or an equal amount of rabbit IgG or pre-immune serum at 4° C. overnight, and subsequently with protein A-conjugated Sepharose beads for 1 hour. For the integrin β3 clustering experiment, human platelets (3×10^8) were stimulated with 0.025 U/ml α-thrombin for 2 minutes at room temperature (to avoid platelet aggregation) with or without 2 mM RGDS, then incubated with 5 μl anti-integrin β3 8053 rabbit serum at room temperature for 1 hour, and 5 μg goat anti-rabbit secondary antibody for another 1 hour. Platelets were then solubilized in modified RIPA Buffer. For the un-clustering control and pre-immune serum control, cells were solubilized in modified RIPA Buffer first, than incubated with 5 μl 8053 serum or pre-immune serum. After 3-6 washes with lysis buffer, immunoprecipitates were analyzed by SDS-polyacrylamide gel electrophoresis and Western blots using antibodies against β3, talin, or Gα13. In some experiments, 500 μM control or inhibitor peptides, mP5, mP7 and mP13 were incubated with platelet lysates prior to immunoprecipitation, or 2 mM RGDS was added into washed human platelets before stimulation by 0.025 U/ml α-thrombin. GST bead pull down analysis was previously described^8. Purified Gα13 or MBP-talin head were incubated with glutathione beads-bound to GST or GST-β3CD at 4° C. overnight. Bead-bound proteins were analyzed by immunoblotting.

Myr-EEERA [mP5]
co-immunoprecipitation between Gα13 and β3: inhibited

Myristoyl-KFEEERA [mP7]
co-immunoprecipitation between Gα13 and β3: inhibited

Myristoyl-KFEEERARAKWDT [mP13]
co-immunoprecipitation between Gα13 and β3: inhibited

Myristoyl-LLARRPTKGIHEY [mSRI]
Gα13 binding to β3 (co-immunoprecipitation of β3 with Gα13) (platelet lysates, 250 μM peptide): inhibited
